The results in this text go back to patent publication US9487506B2, “Mineralocorticoid receptor antagonists” (Merck Sharp & Dohme Corp., priority 2011, dated 2016).

In one experiment the target is T1, full-length human Mineralocorticoid Receptor (MR) (Homo sapiens, UniProt P08235).
T1 construct: host or cells: PathHunter CHO-K1 cells
T1 sequence (P08235 1-984): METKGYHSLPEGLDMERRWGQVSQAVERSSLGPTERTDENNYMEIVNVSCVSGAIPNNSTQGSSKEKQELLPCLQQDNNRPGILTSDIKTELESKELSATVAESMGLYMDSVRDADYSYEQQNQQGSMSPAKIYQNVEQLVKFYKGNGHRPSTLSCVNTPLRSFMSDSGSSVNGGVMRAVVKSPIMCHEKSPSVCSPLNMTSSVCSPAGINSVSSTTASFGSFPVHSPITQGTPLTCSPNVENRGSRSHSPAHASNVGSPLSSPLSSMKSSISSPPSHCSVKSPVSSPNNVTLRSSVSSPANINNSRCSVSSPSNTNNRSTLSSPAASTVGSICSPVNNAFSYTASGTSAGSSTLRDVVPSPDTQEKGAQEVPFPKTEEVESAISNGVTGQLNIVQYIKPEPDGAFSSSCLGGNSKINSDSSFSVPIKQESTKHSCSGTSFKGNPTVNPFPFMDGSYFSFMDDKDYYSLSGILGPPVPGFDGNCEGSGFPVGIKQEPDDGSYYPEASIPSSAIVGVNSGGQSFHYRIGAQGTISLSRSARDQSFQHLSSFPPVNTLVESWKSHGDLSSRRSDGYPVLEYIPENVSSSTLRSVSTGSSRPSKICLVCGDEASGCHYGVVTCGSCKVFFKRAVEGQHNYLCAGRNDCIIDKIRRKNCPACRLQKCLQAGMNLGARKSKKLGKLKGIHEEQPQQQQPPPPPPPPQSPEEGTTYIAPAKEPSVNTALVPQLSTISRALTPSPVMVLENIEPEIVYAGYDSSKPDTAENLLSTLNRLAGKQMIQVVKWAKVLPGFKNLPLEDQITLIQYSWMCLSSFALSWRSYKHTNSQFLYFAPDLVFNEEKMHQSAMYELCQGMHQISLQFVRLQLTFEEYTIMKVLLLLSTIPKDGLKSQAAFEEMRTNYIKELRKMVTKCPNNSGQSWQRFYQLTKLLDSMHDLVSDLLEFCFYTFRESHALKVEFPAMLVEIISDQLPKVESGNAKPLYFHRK
Nature of the experiment: human MR NH Pro assay (PathHunter Protein:Protein interaction assay), MR antagonist activity. Format: cell-based. To be noted: PathHunter CHO-K1 cells overexpressing human MR; aldosterone 0.3 nM to about 1 nM; 6 hours at 37° C.; luminescence; read-out: IP (rating); IP is the inflection point for a given dose-response titration curve. The source says:
The activity of the compounds of the present invention regarding mineralocorticoid receptor antagonism can be evaluated using the following assay.
Assessment of MR Potency in HMR NH Pro Assay
The human MR NH Pro assay is a commercially available PathHunter™ Protein:Protein interaction assay (DiscoveRx; http://www.discoverx.com/nhrs/prod-nhrs.php) that measures the ability of compounds to antagonize full-length human Mineralocorticoid Receptor (MR) binding to a coactivator peptide. PathHunter™ CHO-K1 cells that overexpress human MR (Cat #93-0456C2, Lot No: 09B0913) were cultured in growth media (F12K w/Glutamine and phenol red (Gibco 11765-047) supplemented with 10% HI FBS (Gibco 16000); 0.25 mg/ml Hygromycin in PBS (Invitrogen 10687-010, 50 mg/ml); 100 I.U./mL and 100 μg/mL Pen/Strep (Gibco 15140-122); 0.6 mg/mL Geneticin (Gibco 10131-027).
Compounds were assessed for MR antagonist activity by incubating the cells with a titrating dose of compound in F12K w/Glutamine and phenol red culture media (Invitrogen 11765-047) supplemented with 1% Charcoal/Dextran Treated FBS (Hyclone #SH30068.01) and aldosterone (0.3 nM to about 1 nM) for 6 hours at 37° C. Cells were then treated with DiscoveRx detection reagent for 1 hour at room temperature and read using an Envision luminescence plate reader. % activity was measured relative to cells treated with aldosterone alone and IC50 values were calculated using ADA software.
Stock solution was prepared at 10 μM in DMSO and stored at −20° C. for assay, dilute in assay media to 1.8 or 6 nM (6× of final concentration=about 0.3 nM to about 1.0 nM)
5. Cell line: PathHunter CHO-K1 MR cells Cat #93-0456C2, Lot No: 09B0913, from operation liquid nitrogen stock.
3. The cells concentration was adjusted to 4×10^5 cells/mL.
4. Cells were (25 μL/well) added to the wells of a 384 well plate.
5. The plate was then incubated at 37° C. over night in a humidified incubator with 5% CO2.
6. Test compounds were titrated starting at 4.4 mM, 10-point titration in 1:3 dilution.
7. Aldosterone was diluted in assay media to 1.8 nM or 6 nM from 10 μM stock (final concentration to be about 0.3 nM to about 1.0 nM)
1. 10K exponentially growing cells/well (25 μL) were resuspended in assay media and plated into each well using the Multidrop (Thermo Electron) (use white wall, clear bottom assay plates (Costar #3570) and incubated overnight at 37° C., 5% CO2.
2. 0.25 μL 120× test compound (final DMSO concentration should be <1%) was added to each well n=2, 10 point titrations starting at 36.7 μM final concentration.
3. 5 μL of 6× agonist (final aldosterone concentration should be about 0.3 nM to about 1.0 nM) was added to all wells (using the PlateMate Plus; (ThermoFisher) (except those wells in columns 23 and 24)
4. 5 μL of assay media was added to all wells in column 23 and 24.
5. Cells were then incubated for 6 hrs at 37° C., 5% CO2.
6. 15 μL 3× DiscoveRx detection reagent was then added to each well.
7. Plates were incubated for 1 hour at room temperature in the dark.
8. Plates were read on Envision (PerkinElmer) luminesence plate reader and analyzed using ADA.
For `CS(=O)(=O)Nc1cccc2c(C(CCC#N)c3ccc(Cl)cc3F)n[nH]c12` (single isomer, unassigned) [Example 2, N-{3-[1-(4-chloro-2-fluorophenyl)-3-cyanopropyl]-1H-indazol-7-yl}methanesulfonamide (Single Enantiomer)], the IC50 was less than 100 nM.
In the case of `CCC(c1ccc(Cl)cc1)(c1n[nH]c2c(NS(C)(=O)=O)cccc12)C(C)O` (single isomer, unassigned; diastereoisomer a) [Compound 24A, N-(3-(3-(4-chlorophenyl)-2-hydroxypentan-3-yl)-1H-indazol-7-yl)methane sulfonamide(diastereoisomer A)], the IC50 was less than 100 nM.
Turning to `CCC(c1ccc(Cl)cc1)(c1n[nH]c2c(NS(C)(=O)=O)cccc12)C(C)O` (single isomer, unassigned; diastereoisomer b) [Compound 24B], the IC50 was less than 100 nM.
For the compound `CCC(C#N)(c1ccc(Cl)cc1)c1n[nH]c2c([N+](=O)[O-])cccc12` (stereo not shown) [Compound 22, 2-(4-chlorophenyl)-2-(7-nitro-1H-indazol-3-yl)butanenitrile], the IC50 is 500 to 6000 nM.
For the compound `CCC(C#N)(c1ccc(Cl)cc1)c1n[nH]c2c(NS(C)(=O)=O)cccc12` (stereo not shown) [Compound 23, N-(3-(1-(4-chlorophenyl)-1-cyanopropyl)-1H-indazol-7-yl)methanesulfonamide], the IC50 fell in the range of 500 to 6000 nM.
For `CCC(CO)(c1ccc(Cl)cc1)c1n[nH]c2c(NS(C)(=O)=O)cccc12` (stereo not shown) [Compound 25, N-(3-(2-(4-chlorophenyl)-1-hydroxybutan-2-yl)-1H-indazol-7-yl)methane sulfonamide], the IC50 is less than 100 nM.
Same read-out and setting: in the case of `Fc1cc(Cl)ccc1Cc1n[nH]c2ccccc12` [Example 1, 3-(4-chloro-2-fluorobenzyl)-1H-indazole] it was 500 to 6000 nM; in that of `N#CCCC(c1ccc(Cl)cc1F)c1n[nH]c2c(-c3cccnc3)cccc12` (stereo not shown) [Example 3, 4-(4-chloro-2-fluorophenyl)-4-(7-pyridin-3-yl-1H-indazol-3-yl)butanenitrile], 500 to 6000 nM; in that of `N#CCCC(c1ccc(Cl)cc1F)c1n[nH]c2c(-c3ccncc3)cccc12` (stereo not shown) [Example 4, 4-(4-chloro-2-fluorophenyl)-4-(7-pyridin-4-yl-1H-indazol-3-yl)butanenitrile], 500 to 6000 nM.
Same read-out and setting: in the case of `CS(=O)(=O)Nc1cccc2c(C(CCCO)c3ccc(Cl)cc3F)n[nH]c12` (stereo not shown) [Example 5, N-{3-[1-(4-chloro-2-fluorophenyl)-4-hydroxybutyl]-1H-indazol-7-yl}methanesulfonamide] it was 100 to 500 nM; in that of `CS(=O)(=O)Nc1cccc2c(C(CC#N)c3ccc(Cl)cc3F)n[nH]c12` (stereo not shown) [Example 6, N-{3-[1-(4-chloro-2-fluorophenyl)-2-cyanoethyl]-1H-indazol-7-yl}methanesulfonamide], 500 to 6000 nM; in that of `N#CCCC(c1ccc(Cl)cc1F)c1n[nH]c2c(NS(=O)(=O)C3CC3)cccc12` (stereo not shown) [Example 7, N-{3-[1-(4-chloro-2-fluorophenyl)-3-cyanopropyl]-1H-indazol-7-yl}cyclopropanesulfonamide], 500 to 6000 nM.
Same read-out and setting: with `Cc1noc(CCC(c2ccc(Cl)cc2F)c2n[nH]c3c(NS(C)(=O)=O)cccc23)n1` (stereo not shown) [Example 8, N-{3-[1-(4-chloro-2-fluorophenyl)-3-(3-methyl-1,2,4-oxadiazol-5-yl)propyl]-1H-indazol-7-yl}methanesulfonamide] the figure was 500 to 6000 nM.
Consider `CC(=O)CCC(c1ccc(Cl)cc1F)c1n[nH]c2c(NS(C)(=O)=O)cccc12` (stereo not shown) [Example 9, N-{3-[1-(4-chloro-2-fluorophenyl)-4-oxopentyl]-1H-indazol-7-yl}methanesulfonamide], for which the IC50 lay within 500 to 6000 nM.
Regarding `CC(C)(O)CCC(c1ccc(Cl)cc1F)c1n[nH]c2c(NS(C)(=O)=O)cccc12` (stereo not shown) [Example 10, n-{3-[1-(4-chloro-2-fluorophenyl)-4-hydroxy-4-methylpentyl]-1H-indazol-7-yl}methanesulfonamide], the IC50 fell in the range of 500 to 6000 nM.
The same measure, in the same setting: in the case of `CCC(O)(CC)CCC(c1ccc(Cl)cc1F)c1n[nH]c2c(NS(C)(=O)=O)cccc12` (stereo not shown) [Example 11, N-{3-[1-(4-chloro-2-fluorophenyl)-4-hydroxy-4-ethylhexyl]-1H-indazol-7-yl}methanesulfonamide] it was 500 to 6000 nM; in that of `N#CCCC(c1ccc(Cl)cc1F)c1n[nH]c2ccccc12` (stereo not shown) [Example 12, 4-(4-chloro-2-fluorophenyl)-4-(1H-indazol-3-yl)butanenitrile], 500 to 6000 nM.
Still for that read-out and setting: in the case of `Cn1nc(C(CCC#N)c2ccc(Cl)cc2F)c2ccccc21` (stereo not shown) [Example 13, 4-(4-chloro-2-fluorophenyl)-4-(1-methyl-1H-indazol-3-yl)butanenitrile] it was 500 to 6000 nM; in that of `CCn1nc(C(CCC#N)c2ccc(Cl)cc2F)c2ccccc21` (stereo not shown) [Example 14, 4-(4-chloro-2-fluorophenyl)-4-(1-ethyl-1H-indazol-3-yl)butanenitrile], 500 to 6000 nM; in that of `CCCn1nc(C(CCC#N)c2ccc(Cl)cc2F)c2ccccc21` (stereo not shown) [Example 15, 4-(4-chloro-2-fluorophenyl)-4-(1-propyl-1H-indazol-3-yl)butanenitrile], 500 to 6000 nM.
Regarding `N#CCCC(c1ccc(Cl)cc1F)c1nn(Cc2ccccc2)c2ccccc12` (stereo not shown) [Example 16, 4-(1-benzyl-1H-indazol-3-yl)-4-(4-chloro-2-fluorophenyl)butanenitrile], the IC50 was 500 to 6000 nM.
Still for that read-out and setting: with `COC(=O)Cn1nc(C(CCC#N)c2ccc(Cl)cc2F)c2ccccc21` (stereo not shown) [Example 17A, methyl {3-[1-(4-chloro-2-fluorophenyl)-3-cyanopropyl]-1H-indazol-1-yl}acetate] the figure was 500 to 6000 nM.
On the same count and under the same terms, with `CC(C)(C)OC(=O)Cn1nc(C(CCC#N)c2ccc(Cl)cc2F)c2ccccc21` (stereo not shown) [Example 17B, tert-Butyl {3-[1-(4-chloro-2-fluorophenyl)-3-cyanopropyl]-1H-indazol-1-yl}acetate] the figure was 500 to 6000 nM.

Still in this experiment, the particulars now being: enantiomers from chiral SFC OJ-H separation of the racemate.
For the compound `CS(=O)(=O)Nc1cccc2c(C(CCC#N)c3ccc(Cl)cc3F)n[nH]c12` (single isomer, unassigned) [Example 2, N-{3-[1-(4-chloro-2-fluorophenyl)-3-cyanopropyl]-1H-indazol-7-yl}methanesulfonamide (Single Enantiomer)], the “relative MR antagonist activity of the separated enantiomers” value is given as “more active”.
On to `CS(=O)(=O)Nc1cccc2c(C(CCC#N)c3ccc(Cl)cc3F)n[nH]c12` (single isomer, unassigned) [second peak, N-{3-[1-(4-Chloro-2-fluorophenyl)-3-cyanopropyl]-1H-indazol-7-yl}methanesulfonamide], for which the “relative MR antagonist activity of the separated enantiomers” value is on record as “less active”.
